Some results are limits rather than exact numbers.

One assay has as its target Carbonic anhydrase 1 (Homo sapiens, UniProt P00915). In words: Inhibition of human recombinant carbonic anhydrase-1 preincubated for 6 hrs by stopped-flow CO2 hydration assay.
For another assay, the target named is Carbonic anhydrase 2 (Homo sapiens, UniProt P00918). In words: Inhibition of human recombinant carbonic anhydrase-2 preincubated for 6 hrs by stopped-flow CO2 hydration assay.
A further assay has as its target Carbonic anhydrase 9 (Homo sapiens, UniProt Q16790). The experiment in a line: Inhibition of human recombinant carbonic anhydrase-9 preincubated for 6 hrs by stopped-flow CO2 hydration assay.
A further assay deals with Carbonic anhydrase 12 (Homo sapiens, UniProt O43570). In words: Inhibition of human recombinant carbonic anhydrase-12 preincubated for 6 hrs by stopped-flow CO2 hydration assay.
Carbonic anhydrase 12, sequence (O43570 whole entry): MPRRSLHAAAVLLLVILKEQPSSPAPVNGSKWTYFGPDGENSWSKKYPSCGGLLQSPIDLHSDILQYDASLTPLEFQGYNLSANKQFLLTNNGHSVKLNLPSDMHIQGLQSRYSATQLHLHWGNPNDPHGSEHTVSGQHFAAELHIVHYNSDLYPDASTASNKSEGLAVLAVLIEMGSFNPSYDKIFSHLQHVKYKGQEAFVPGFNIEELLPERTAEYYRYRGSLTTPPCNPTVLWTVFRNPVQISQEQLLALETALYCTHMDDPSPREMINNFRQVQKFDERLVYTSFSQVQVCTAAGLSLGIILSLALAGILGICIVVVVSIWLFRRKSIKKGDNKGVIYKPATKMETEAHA

Carbonic anhydrase 1, sequence (P00915 whole entry): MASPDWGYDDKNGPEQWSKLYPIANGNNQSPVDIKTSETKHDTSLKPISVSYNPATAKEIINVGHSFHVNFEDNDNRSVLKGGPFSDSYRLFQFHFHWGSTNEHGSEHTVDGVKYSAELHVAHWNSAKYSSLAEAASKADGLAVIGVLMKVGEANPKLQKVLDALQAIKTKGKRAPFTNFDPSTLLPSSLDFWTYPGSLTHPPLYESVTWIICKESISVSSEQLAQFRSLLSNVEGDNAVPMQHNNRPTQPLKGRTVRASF

For `CC1=Nc2ccccc2S(=O)(=O)N1`, the Ki – broadly, the dissociation constant of the complex between target and ligand, obtained from inhibition or displacement – at Carbonic anhydrase 1 stood at 13.8 µM; on Carbonic anhydrase 2, 0.642 µM; on Carbonic anhydrase 9, 0.349 µM.

`O=C(Nc1ccccc1C(=O)Nc1ccc2c(C(F)(F)F)cc(=O)oc2c1)c1ccc(F)cc1`: the Ki at Carbonic anhydrase 1 is > 500 µM; on Carbonic anhydrase 2, > 500 µM; at Carbonic anhydrase 9, 0.02 µM.

Consider `O=c1[nH]c(=O)c2cc([N+](=O)[O-])ccc2[nH]1`, for which the figures for the Ki on Carbonic anhydrase 1, at Carbonic anhydrase 2 and at Carbonic anhydrase 9 were > 500 µM, > 500 µM and 5.47 µM, respectively.

For the molecule `Cc1cc(=O)oc2cc(NC(=O)c3ccccc3NC(=O)c3ccccc3)ccc12`, the Ki at Carbonic anhydrase 1 was > 500 µM; on Carbonic anhydrase 2 it was > 500 µM; on Carbonic anhydrase 9 it was 0.0216 µM.

On to `Cc1cc(=O)oc2cc(NC(=O)c3ccccc3NC(=O)c3ccc(F)cc3)ccc12`, for which the Ki on Carbonic anhydrase 1 is > 500 µM; at Carbonic anhydrase 2, > 500 µM; on Carbonic anhydrase 9, 0.0151 µM.

On to `O=C(Nc1ccccc1C(=O)Nc1ccc2c(C(F)(F)F)cc(=O)oc2c1)c1ccc(Cl)cc1`, for which the inhibitory constant (Ki) at Carbonic anhydrase 1 is > 500 µM; at Carbonic anhydrase 2 it was > 500 µM; on Carbonic anhydrase 9, 0.0245 µM.

Turning to `O=C1Nc2ccccc2S(=O)(=O)N1`, the Ki came to 0.783 µM at Carbonic anhydrase 1, 0.127 µM on Carbonic anhydrase 2 and 0.0874 µM at Carbonic anhydrase 9.

With `Cc1cc(=O)oc2cc(NC(=O)c3ccccc3NC(=O)c3ccc(Cl)cc3)ccc12`, the Ki was > 500 µM on Carbonic anhydrase 1, > 500 µM on Carbonic anhydrase 2 and 0.0184 µM at Carbonic anhydrase 9.

`O=S1(=O)NC=Nc2ccccc21`: the inhibition constant Ki is 12.6 µM on Carbonic anhydrase 1, 0.378 µM on Carbonic anhydrase 2 and 0.116 µM at Carbonic anhydrase 9.

On to `O=C(Nc1ccccc1C(=O)Nc1ccc2c(C(F)(F)F)cc(=O)oc2c1)c1ccccc1`, for which the Ki was > 500 µM on Carbonic anhydrase 1, > 500 µM at Carbonic anhydrase 2 and 0.0109 µM at Carbonic anhydrase 9.

In the case of `O=c1[nH]cnc2ccccc12` [QUINAZOLINONE], the Ki is > 500 µM on Carbonic anhydrase 2, 15.7 µM on Carbonic anhydrase 9 and 10.5 µM on Carbonic anhydrase 12.

(Values after ChEMBL document CHEMBL3872261, “Coumarins and other fused bicyclic heterocycles with selective tumor-associated carbonic anhydrase isoforms inhibitory activity” (Bioorg Med Chem, 2017).)
